We go through six compounds from patent US4163784A, “Heterocyclylcarbonyl derivatives of urea, agents for dissolution of gallstones” (Pfizer Inc., priority 1978, dated 1979).

Data set [1] relates to male CD-1 mice. The data set can be described thus: acute toxicity, single intraperitoneal dose. It counts as in vivo. Particulars: 1000 mg./kg. single i.p. dose, 0.6% Tween 20, 10 mice per group, observed one week. The method, then: The compounds were tested for acute toxicity in the following manner. Healthy male CD-1 mice (20-25 g.), 10 mice per group, received a single high dose of drug by intraperitoneal administration (1000 mg./kg., in 0.6% Tween 20, at a concentration of 70 mg./ml.). (Tween 20, polyoxyethylene sorbitan monolaurate, available from Atlas Chemical Industries, Inc.). The animals were observed continuously for at least two hours, again at 24 hours and daily thereafter for one week. Controls received vehicle alone, […]. and were asymptomatic throughout. The compounds tested and the widely varying mortality rates observed are tabulated below.

Data set [2] has as its system male CD-1 mice. The data set can be described thus: seven-day chronic toxicity test (hepatotoxicity). It counts as in vivo. Particulars: 500 mg./kg. daily orally in 0.1% methyl cellulose for 5 days.
The next data set relates to dogs. Briefly: oral administration at high dose to dogs, toxicity. The format is in vivo. Particulars: 250 mg./kg.
Another data set has as its system rats. Briefly: oral administration at high dose to rats, toxicity. Particulars: same high dose as dogs (250 mg./kg.). The format is in vivo.
Data set [3] concerns pathogenic cholelithiasis process. Particulars: in man; cited from earlier work.

As for `O=C(NC(=O)N1CC=CCC1)c1ccc(Cl)nc1` [6-Chloro-N-[1-(1,2,3,6-tetrahydropyridyl)carbonyl]nicotinamide], the “Mortality Rate” value in the data set on male CD-1 mice [1] is on record as 0/10. The hepatotoxicity result in the data set with male CD-1 mice [2] is reported as “produced hepatotoxicity”. In addition, the “pathological signs in dogs” value in the data set with dogs is “pathological signs suggestive of cardiac impairment”. The “toxic effects in dogs: death” value in the data set on dogs (ten times the projected efficacious dose) was “death of the dogs”. Also, the “toxicological symptoms in rats” value in the data set with rats is “only moderate toxicological symptoms, including lethargy, diminished appetite and weight gain, and slight abnormalities in clinical chemistry”.

For `C[C@H](CCC(=O)O)[C@H]1CC[C@H]2[C@@H]3[C@H](O)C[C@@H]4C[C@H](O)CC[C@]4(C)[C@H]3CC[C@]12C` [chenodeoxycholic acid], the “prevention and reversal of the pathogenic cholelithiasis process” value in data set [3] is “prevention and even reversal of the pathogenic cholelithiasis process in man”.

For the compound `O=C(NCc1ccccc1)NC(=O)c1cccnc1Cl` [2-chloro-N-(benzylaminocarbonyl)nicotinamide], the “Mortality Rate” value in the data set on male CD-1 mice [1] is given as 0/10. The hepatotoxicity entry in the data set on male CD-1 mice [2] is “no hepatotoxicity”.

`CCCCN(CCCC)C(=O)NC(=O)c1cccnc1` [3-pyridyl, N-(n-C 4 H9)2]: in the data set with male CD-1 mice [1], the “Mortality Rate” value is given as 10/10.

For `O=C(NC(=O)N1CC=CCC1)c1cccnc1` [3-pyridyl, 1-(1,2,3,6-tetrahydropyridyl)], the “Mortality Rate” value in the data set on male CD-1 mice [1] is reported as 9/10.

For `CCCCN(CCCC)C(=O)NC(=O)c1cncs1` [5-thiazolyl, N-(n-C 4 H9)2], in the data set with male CD-1 mice [1], the “Mortality Rate” value is recorded as 4/10.
